Test results from paper PMC7497630, “Coibamide A Targets Sec61 to Prevent Biogenesis of Secretory and Membrane Proteins” (ACS Chemical Biology, 2020).
Bridge positions count the residues as written; N and C are the ends. Square brackets hold non-standard residues; d marks the D form. Peptide text beside a SMILES is read from it. * marks the point of attachment. Phe(4-CF3-diazirinyl) = N[C@@H](Cc1ccc(C2(C(F)(F)F)N=N2)cc1)C(=O)O; NMe2Val = CC(C)[C@@H](C(=O)*)N(C)C; NMeI = CC[C@H](C)[C@H](NC)C(=O)O; NMeT = CN[C@H](C(=O)O)[C@@H](C)O; NMeL = CN[C@@H](CC(C)C)C(=O)O; NMePra = C#CC[C@H](NC)C(=O)O; dHiv = CC(C)[C@@H](O)C(=O)O; NMeS = CN[C@@H](CO)C(=O)O; Pra = C#CC[C@H](N)C(=O)O; dNMeA = CN[C@H](C)C(=O)O

Experiments:
[1] = molecular target: Sec61α in U87-MG glioblastoma cells (Homo sapiens, UniProt P61619); test: Cellular thermal shift assay; type: cell-based; conditions: intact U87-MG cells
Chain of Sec61α in U87-MG glioblastoma cells (P61619 whole entry): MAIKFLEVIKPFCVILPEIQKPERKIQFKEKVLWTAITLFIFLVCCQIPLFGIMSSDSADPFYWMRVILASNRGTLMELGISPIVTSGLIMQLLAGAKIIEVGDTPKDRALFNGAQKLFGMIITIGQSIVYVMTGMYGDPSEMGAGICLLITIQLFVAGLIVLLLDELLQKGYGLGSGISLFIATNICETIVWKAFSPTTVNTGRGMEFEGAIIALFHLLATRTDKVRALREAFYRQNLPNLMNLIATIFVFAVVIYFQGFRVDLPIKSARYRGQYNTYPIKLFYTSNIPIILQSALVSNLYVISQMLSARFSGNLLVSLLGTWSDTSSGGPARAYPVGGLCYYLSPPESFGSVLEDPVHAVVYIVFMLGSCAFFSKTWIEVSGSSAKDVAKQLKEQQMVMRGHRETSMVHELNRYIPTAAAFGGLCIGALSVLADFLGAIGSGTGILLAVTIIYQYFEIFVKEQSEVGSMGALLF
Chain of Sec61α in U87-MG glioblastoma cells (P60468 2-96 partner limits assumed): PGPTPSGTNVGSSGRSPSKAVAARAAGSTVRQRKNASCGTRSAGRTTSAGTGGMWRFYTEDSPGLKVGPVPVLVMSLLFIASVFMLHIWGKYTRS
Chain of Sec61α in U87-MG glioblastoma cells (P60059 whole entry partner): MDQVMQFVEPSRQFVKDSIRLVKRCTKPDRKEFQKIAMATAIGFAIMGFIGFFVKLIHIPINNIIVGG

HCT116 cells = test: Cell viability, Alamar Blue assay; type: cell-based, human; conditions: HCT116, 72 h, 0.1% DMSO (Figure 1D), read-out: IC50
Experimental: Figure 1 Cytotoxicity of synthetic and Pra-containing coibamides. (A) Structure of CbA. (B) Human MDA-MB-231 breast cancer cells were treated with increasing concentrations of synthetic CbA or vehicle (0.1% DMSO) and cell viability assessed at 72 h by an MTS end-point assay. (C) Structure of Photo-CbA. (D) Human HCT116 cells were treated with increasing concentrations of synthetic or photo-CbA in 0.1% DMSO, and cell viability assessed at 72 h by Alamar Blue assay. TEXT PRINTED IN THE PICTURE: (B) CbA: MDA-MB-231 cell line: IC50(nM): 1.6 | (D) CbA: HCT 116 cell line: IC50(nM): 29.2 | (D) Photo-CbA: HCT 116 cell line: IC50(nM): 6.5
Figure 5 CbA mode of inhibition is specific compared to known Sec61 inhibitors. (A) Cell viability was measured by Alamar Blue assay (mean ± SD, n = 4, all cell lines assayed simultaneously) for HCT-116 cell lines isolated on the basis of CbA resistance in the presence of concentration series of indicated compounds. (B) Cell viability was measured by Alamar Blue assay (mean ± SD, n = 4, all cell lines assayed simultaneously) for HEK293FRT cells stably expressing Sec61α mutants in the presence of concentration series of indicated compounds. (C) Comparison of published NCI60 data for CbA,[3] AprA,[11] and IpoF.[33] The heat map was derived by plotting each GI50 value divided by the median GI50 for that compound. X indicates a cell line that was not tested. Closed arrowhead indicates cell lines with most notable differences across the three compounds. […]
A431, HEK293T, and HEK293FRT cells were cultured in DMEM supplemented with 10% FBS. […] Viability was estimated by the addition of Alamar Blue (Life Technologies) and measuring fluorescence after a further 4 h. […]

[2] = test system: A549 human lung adenocarcinoma cells; conditions: 72 h

SMILES | IC50 [2] | also measured
NCC(=O)Nc1ccc(-n2nc(C(F)(F)F)cc2-c2ccc3c(ccc4ccccc43)c2)cc1 [OSU-03012] |  | Sec61α detection at 60–66 °C (melting curve) ([1]; 45 to 72 °C for 3 min, 3 μM OSU-03012, 1 h): relatively weak immunoreactivity; stabilization of Sec61α, isothermal dose–response ([1]; 51 °C for 3 min, OSU-03012 0.03 nM to 10 μM): no apparent stabilization
C#CC[C@@H](C(=O)N(C)[C@@H](CC(C)C)C(=O)N(C)[C@@H]1C(=O)N(C)[C@@H](COC)C(=O)N(C)[C@@H]([C@@H](C)CC)C(=O)N[C@@H](C)C(=O)N(C)[C@@H](CC(C)C)C(=O)N[C@@H](Cc2ccc(C3(C(F)(F)F)N=N3)cc2)C(=O)N(C)[C@H](C)C(=O)O[C@@H]1C)N(C)C(=O)[C@H](OC(=O)[C@H](C(C)C)N(C)C)C(C)C [Photo-CbA] (NMe2Val-[dHiv][NMePra][NMeL][NMeT][NMeS](Me)[NMeI]A[NMeL][Phe(4-CF3-diazirinyl)][dNMeA]; ester 4-C) |  | IC50 (HCT116 cells): 6.5 nM
C#CC[C@@H](C(=O)N(C)[C@@H](CC(C)C)C(=O)N(C)[C@@H]1C(=O)N(C)[C@@H](COC)C(=O)N(C)[C@@H]([C@@H](C)CC)C(=O)N[C@@H](C)C(=O)N(C)[C@@H](CC(C)C)C(=O)N[C@@H](Cc2ccc(OC)cc2)C(=O)N(C)[C@H](C)C(=O)O[C@@H]1C)N(C)C(=O)[C@H](OC(=O)[C@H](C(C)C)N(C)C)C(C)C [R3 = propargyl] (NMe2Val-[dHiv][NMePra][NMeL][NMeT][NMeS](Me)[NMeI]A[NMeL]Y(Me)[dNMeA]; ester 4-C) | 1.7 ± 0.3 nM | 
C#CC[C@@H](C(=O)N(C)[C@@H]1C(=O)N(C)[C@@H](COC)C(=O)N(C)[C@@H]([C@@H](C)CC)C(=O)N[C@@H](C)C(=O)N(C)[C@@H](CC(C)C)C(=O)N[C@@H](Cc2ccc(OC)cc2)C(=O)N(C)[C@H](C)C(=O)O[C@@H]1C)N(C)C(=O)[C@H](COC)N(C)C(=O)[C@H](OC(=O)[C@H](C(C)C)N(C)C)C(C)C [R4 = propargyl] (NMe2Val-[dHiv][NMeS](Me)[NMePra][NMeT][NMeS](Me)[NMeI]A[NMeL]Y(Me)[dNMeA]; ester 4-C) | 3.7 ± 0.5 nM | 
C#CC[C@H]1C(=O)N(C)[C@@H]([C@@H](C)CC)C(=O)N[C@@H](C)C(=O)N(C)[C@@H](CC(C)C)C(=O)N[C@@H](Cc2ccc(OC)cc2)C(=O)N(C)[C@H](C)C(=O)O[C@H](C)[C@H](N(C)C(=O)[C@H](CC(C)C)N(C)C(=O)[C@H](COC)N(C)C(=O)[C@H](OC(=O)[C@H](C(C)C)N(C)C)C(C)C)C(=O)N1C [R6 = propargyl] (NMe2Val-[dHiv][NMeS](Me)[NMeL][NMeT][NMePra][NMeI]A[NMeL]Y(Me)[dNMeA]; ester 4-C) | 2 ± 0.9 nM | 
C#CC[C@H]1C(=O)N[C@@H](C)C(=O)N(C)[C@@H](CC(C)C)C(=O)N[C@@H](Cc2ccc(OC)cc2)C(=O)N(C)[C@H](C)C(=O)O[C@H](C)[C@H](N(C)C(=O)[C@H](CC(C)C)N(C)C(=O)[C@H](COC)N(C)C(=O)[C@H](OC(=O)[C@H](C(C)C)N(C)C)C(C)C)C(=O)N(C)[C@@H](COC)C(=O)N1C [R7 = propargyl] (NMe2Val-[dHiv][NMeS](Me)[NMeL][NMeT][NMeS](Me)[NMePra]A[NMeL]Y(Me)[dNMeA]; ester 4-C) | 9.3 ± 3.4 nM | 
C#CC[C@@H]1NC(=O)[C@H]([C@@H](C)CC)N(C)C(=O)[C@H](COC)N(C)C(=O)[C@@H](N(C)C(=O)[C@H](CC(C)C)N(C)C(=O)[C@H](COC)N(C)C(=O)[C@H](OC(=O)[C@H](C(C)C)N(C)C)C(C)C)[C@@H](C)OC(=O)[C@@H](C)N(C)C(=O)[C@H](Cc2ccc(OC)cc2)NC(=O)[C@H](CC(C)C)N(C)C1=O [R8 = propargyl] (NMe2Val-[dHiv][NMeS](Me)[NMeL][NMeT][NMeS](Me)[NMeI][Pra][NMeL]Y(Me)[dNMeA]; ester 4-C) | 66 ± 15 nM | 
C#CC[C@H]1C(=O)N[C@@H](Cc2ccc(OC)cc2)C(=O)N(C)[C@H](C)C(=O)O[C@H](C)[C@H](N(C)C(=O)[C@H](CC(C)C)N(C)C(=O)[C@H](COC)N(C)C(=O)[C@H](OC(=O)[C@H](C(C)C)N(C)C)C(C)C)C(=O)N(C)[C@@H](COC)C(=O)N(C)[C@@H]([C@@H](C)CC)C(=O)N[C@@H](C)C(=O)N1C [R9 = propargyl] (NMe2Val-[dHiv][NMeS](Me)[NMeL][NMeT][NMeS](Me)[NMeI]A[NMePra]Y(Me)[dNMeA]; ester 4-C) | 19 ± 7.6 nM | 
